“Also recorded” adds a separate entry of the source.
Assays:
[1] = trained expert panel; cited from earlier work
[2] = concentration X humans' ability to detect; cited from earlier work
[3] = molecular target: LePEDH (tomato 2-phenylethanol dehydrogenase, full-length cLET2M9) (Solanum lycopersicum, UniProt A6N6K7); assay: Alcohol dehydrogenase activity of E. coli expressed His-tagged LePEDH on phenylacetaldehyde and related substrates (Km); type: biochemical; details: His tag
Description: The 2-phenylethanol dehydrogenase coding region of the full-length cLET2M9 was cloned in vector pDEST17 with a His tag and transformed into E. coli BL21-AI cells for inducible expression. Alcohol dehydrogenase activities on phenylacetaldehyde and several related substrates were determined.

[4] = test system: 2-phenylethanol dehydrogenase (full-length cLET2M9); type: biochemical, tomato; details: GST-tagged enzyme, decrease in OD340
Description: A full-length 2-phenylethanol dehydrogenase cDNA was cloned by 5′ RACE from tomato fruit cDNA using primer 5′-[…]-3′ (SEQ ID NO: 3). Following sequence analysis the full-length cDNA was obtained by PCR. The coding region was cloned into vector pDEST15 containing a GST tag (Invitrogen) by recombination, and transformed into E. coli strain BL21-SI (Invitrogen) for inducible protein expression. Enzyme activity of crude E. coli extracts was determined by the method of Larroy et al. (2002) using phenylacetaldehyde, cinnamaldehyde or vanillin as a substrate.
The 2-phenylethanol dehydrogenase coding region of the full-length cLET2M9 and the related cLEG71F12 were cloned in vector pDEST15 with a GST tag and transformed into E. coli BL21-SI cells for inducible expression. The production of recombinant protein in E. coli was determined by Western blotting with an anti-GST antibody.

Chain of LePEDH (tomato 2-phenylethanol dehydrogenase, full-length cLET2M9) (A6N6K7 entry or part of it): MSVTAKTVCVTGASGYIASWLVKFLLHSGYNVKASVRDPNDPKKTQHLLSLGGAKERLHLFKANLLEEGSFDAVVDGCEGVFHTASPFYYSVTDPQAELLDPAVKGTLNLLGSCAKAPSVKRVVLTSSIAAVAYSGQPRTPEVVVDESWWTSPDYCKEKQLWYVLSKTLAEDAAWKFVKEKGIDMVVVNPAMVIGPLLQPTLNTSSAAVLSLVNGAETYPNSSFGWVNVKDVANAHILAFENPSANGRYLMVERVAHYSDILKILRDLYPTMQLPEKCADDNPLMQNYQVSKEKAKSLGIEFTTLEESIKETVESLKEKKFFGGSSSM

| SMILES | Odor Characteristics [1] | Log odor units [2] | Alcohol dehydrogenase activity level as substrate [3] | Alcohol dehydrogenase activity level as substrate [4] |
| --- | --- | --- | --- | --- |
| C=CC(=O)CC [1-Penten-3-one] | fruity; also recorded: floral/green | 2.7 |  |  |
| O=[N+]([O-])CCc1ccccc1 [1-nitro-2-Phenylethane] | musty, earthy | 0.9 |  |  |
| CC(C)Cc1nccs1 [2-Isobutylthiazole] | Tomato vine | 1.0 |  |  |
| OCCc1ccccc1 [2-Phenylethanol] | Nutty | 0.3 |  |  |
| CC(C)CCO [3-Methylbutanol] | earthy, musty | 0.2 |  |  |
| CC(=O)CCC=C(C)C [6-Methyl-5-hepten-2-one] | fruity, floral | 0.4 |  |  |
| O=Cc1ccccc1 [Benzaldehyde] |  |  | Lower activity levels |  |
| O=C/C=C/c1ccccc1 [Cinnamaldehyde] |  |  | Lower activity levels | Lower activity levels |
| CCCCCC=O [Hexanal] | green/grassy | 2.8 |  |  |
| COC(=O)c1ccccc1O [Methyl salicylate] | wintergreen | 0.08 |  |  |
| O=CCc1ccccc1 [Phenylacetaldehyde] | floral/alcohol | 0.6 | highest level of activity | highest level of activity; also recorded: Highest activity levels |
| CC/C=C\CC=O [cis-3-Hexenal] | Tomato/green | 3.7 |  |  |
| O=Cc1ccccc1O [salicylaldehyde] |  |  | no detectable activity |  |
| CCCC/C=C/C=O [trans-2-Heptenal] | Green | 0.7 |  |  |
| CCC/C=C/C=O [trans-2-Hexenal] | Green | 1.2 |  |  |
| COc1cc(C=O)ccc1O [vanillin] |  |  |  | negligible activity |
| C/C=C/C(=O)C1=C(C)C=CCC1(C)C [β-Damascenone] | Fruity | 2.7 |  |  |
| CC(=O)/C=C/C1=C(C)CCCC1(C)C [β-ionone] | fruity/floral | 2.8 |  |  |

Source: patent US8709811B2, “Materials and methods for synthesis of a flavor and aroma volatile in plants” (University of Florida Research Foundation, Inc., priority 2003, dated 2014)
